Data: the supplement of paper PMC10307832

Experiments:
[1] = compound: CC(C)(C)c1nc(-c2cccc(NS(=O)(=O)c3c(F)cccc3F)c2F)c(-c2ccnc(N)n2)s1 [Dabrafenib] + CC(=O)Nc1cccc(-n2c(=O)n(C3CC3)c(=O)c3c(Nc4ccc(I)cc4F)n(C)c(=O)c(C)c32)c1 [Trametinib] (partner 0.02 µM); assay: relative viability (nuclei count vs DMSO), 5 days (fraction); higher = more cells survive
How it was run: (§1)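 One day after seeding in 1536-well plates, lung cancer cell lines were dosed by pin tool. Dosing was either single-drug or a fixed anchor-drug dose plus five library-drug doses (not always all listed) in √10 steps. After 5 days, nuclei were stained in one fix-and-stain step and counted on 4× images, and relative viability is the nuclei count of treated wells over that of vehicle wells, given as the median of duplicate plates.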

[2] = compound: NC(=O)c1ccc(N(C(N)=O)c2c(F)cccc2F)nc1-c1ccc(F)cc1F [VX-702] + Cc1nc(Nc2ncc(C(=O)Nc3c(C)cccc3Cl)s2)cc(N2CCN(CCO)CC2)n1 [Dasatinib] (partner 0.075 µM); assay: as above
How it was run: as §1

| Cell Line | relative viability ([1]; first compound 0.003 µM) | relative viability ([1]; first compound 0.009487 µM) | relative viability ([1]; first compound 0.03 µM) | relative viability ([1]; first compound 0.09487 µM) | relative viability ([1]; first compound 0.3 µM) | relative viability ([2]; first compound 0.02 µM) | relative viability ([2]; first compound 0.2 µM) | relative viability ([2]; first compound 0.6325 µM) | relative viability ([2]; first compound 2 µM) |
| --- | --- | --- | --- | --- | --- | --- | --- | --- | --- |
| 201T | 0.723 | 0.744 | 0.654 | 0.685 | 0.751 | 0.578 | 0.542 | 0.587 | 0.576 |
| A-427 | 0.759 | 0.737 | 0.745 | 0.65 | 0.785 | 0.689 | 0.698 | 0.796 | 0.584 |
| ABC-1 |  |  |  |  |  | 0.666 | 0.535 | 0.573 | 0.562 |
| BEN |  | 1.07 |  | 0.842 | 1.11 | 0.337 | 0.255 | 0.317 | 0.304 |
| CAL-12T | 0.327 | 0.319 | 0.382 | 0.334 | 0.445 | 0.409 | 0.539 | 0.273 | 0.463 |
| COR-L23 | 0.528 | 0.432 | 0.626 | 0.512 | 0.656 | 0.523 | 0.475 | 0.559 | 0.673 |
| COR-L 105 | 0.418 | 0.478 | 0.46 | 0.479 | 0.521 | 0.315 | 0.402 | 0.313 | 0.3 |
| ChaGo-K-1 | 0.884 | 0.929 | 0.933 | 0.875 | 0.905 | 0.769 | 0.584 | 0.622 | 0.614 |
| EKVX |  | 0.367 | 0.304 | 0.434 | 0.462 | 0.62 | 0.491 | 0.527 | 0.436 |
| EMC-BAC-2 |  | 0.827 | 1 | 1.03 | 1.2 | 0.182 | 0.331 | 0.332 | 0.275 |
| EPLC-272H |  | 0.262 | 0.312 | 0.349 | 0.329 | 0.359 | 0.332 | 0.362 | 0.377 |
| H3255 | 0.641 | 0.584 | 0.668 | 0.639 | 0.789 | 0.312 | 0.301 | 0.44 | 0.409 |
| HARA |  | 0.805 | 0.832 | 0.721 | 1 | 0.224 | 0.268 | 0.36 | 0.329 |
| HCC-15 | 0.354 | 0.437 | 0.378 | 0.374 | 0.506 | 0.667 | 0.501 | 0.602 | 0.639 |
| HCC-44 | 0.926 | 0.993 | 1.18 | 0.876 | 1.11 |  |  |  |  |
| HCC-78 |  | 0.688 | 0.668 | 0.761 | 0.89 | 0.449 | 0.338 | 0.351 | 0.356 |
| HCC-366 | 0.324 | 0.348 | 0.225 | 0.374 | 0.396 | 0.786 | 0.601 | 0.598 | 0.22 |
| HCC-827 | 0.511 | 0.53 | 0.522 |  | 0.616 | 0.274 | 0.342 | 0.271 | 0.145 |
| HOP-62 | 0.352 | 0.41 | 0.36 | 0.429 | 0.469 | 0.741 | 0.702 | 0.674 | 0.735 |

| Cell Line | relative viability ([1]; first compound 0.003 µM) | relative viability ([1]; first compound 0.009487 µM) | relative viability ([1]; first compound 0.03 µM) | relative viability ([1]; first compound 0.09487 µM) | relative viability ([1]; first compound 0.3 µM) | relative viability ([2]; first compound 0.02 µM) | relative viability ([2]; first compound 0.2 µM) | relative viability ([2]; first compound 0.6325 µM) | relative viability ([2]; first compound 2 µM) |
| --- | --- | --- | --- | --- | --- | --- | --- | --- | --- |
| LC-2-ad | 0.891 | 0.931 | 0.901 | 0.862 | 0.992 | 0.724 | 0.581 | 0.619 | 0.901 |
| LCLC-97TM1 |  | 0.225 | 0.193 | 0.21 | 0.205 | 0.971 | 0.803 | 0.817 | 1.01 |
| LCLC-103H | 0.635 | 0.707 | 0.614 | 0.684 | 0.701 | 0.487 | 0.403 | 0.504 | 0.507 |
| LK-2 | 0.692 | 0.925 | 0.473 | 0.774 | 0.934 | 0.269 | 0.329 | 0.219 | 0.288 |
| LOU-NH91 |  | 0.774 | 0.792 | 0.782 | 0.837 | 0.572 | 0.553 | 0.576 | 0.364 |
| LU99A | 0.453 | 0.384 | 0.508 | 0.529 | 0.574 | 0.427 | 0.415 | 0.522 | 0.402 |
| LXF-289 | 0.677 | 0.653 | 0.711 | 0.672 | 0.733 | 0.234 | 0.199 | 0.212 | 0.225 |
| NCI-H23 |  | 0.425 | 0.364 | 0.34 | 0.508 | 0.834 | 0.896 | 1.02 | 0.674 |
| NCI-H322M |  | 0.492 |  | 0.53 | 0.532 | 0.241 | 0.265 | 0.247 | 0.249 |
| NCI-H358 | 0.109 | 0.116 | 0.159 | 0.162 | 0.178 | 0.146 | 0.144 | 0.156 | 0.16 |
| NCI-H441 |  | 0.53 | 0.54 | 0.681 | 0.829 | 0.633 | 0.565 | 0.627 | 0.697 |
| NCI-H460 | 0.144 | 0.171 | 0.115 | 0.317 | 0.341 | 0.547 | 0.471 | 0.534 | 0.408 |
| NCI-H520 | 0.665 | 0.653 | 0.541 | 0.627 | 0.628 | 0.2 | 0.194 | 0.176 | 0.24 |
| NCI-H522 |  | 0.829 | 0.753 | 0.682 | 0.792 | 0.978 | 0.7 | 0.83 | 0.984 |
| NCI-H596 |  | 0.84 | 0.707 | 0.747 | 0.704 | 0.672 | 0.579 | 0.56 | 0.57 |
| NCI-H647 | 0.42 | 0.394 | 0.306 | 0.579 | 0.553 | 0.151 | 0.171 | 0.211 | 0.246 |
| NCI-H650 |  | 0.913 | 1.01 | 0.942 | 1.04 | 0.481 |  | 0.534 | 0.533 |
| NCI-H661 | 0.562 | 0.527 | 0.59 | 0.556 | 0.568 | 0.841 | 0.811 | 0.995 | 1.06 |
